Paper PMC3269548 (Neuropharmacology, 2011)
Values joined by “and” are separate entries in the source; they are usually repeats but may differ in a detail not shown here. Identical values can stand only once. “Also recorded” adds a separate entry of the source. Like-named read-outs stand apart in the source and are kept apart here.

Legend:
[1] = test system: GluN1/GluN2A receptors with the NTD deleted on both the GluN1 and GluN2 subunits; test: Inhibition of NTD-deleted GluN1/GluN2A receptor responses in Xenopus oocytes; assay type: cell-based
[2] = test system: GluN1/GluN2D receptors with the NTD deleted on both the GluN1 and GluN2 subunits; test: Inhibition of NTD-deleted GluN1/GluN2D receptor responses in Xenopus oocytes; assay type: cell-based
[3] = target: GluN1/GluN2B NMDA receptor (Rattus norvegicus, UniProt P35439+Q00960); assay type: cell-based; settings: 10 μM L-glutamate plus 10 μM glycine, ± s.e.m., n ≥ 4
Sequence of GluN1/GluN2B NMDA receptor (Q00960 27-1482, other chains not shown): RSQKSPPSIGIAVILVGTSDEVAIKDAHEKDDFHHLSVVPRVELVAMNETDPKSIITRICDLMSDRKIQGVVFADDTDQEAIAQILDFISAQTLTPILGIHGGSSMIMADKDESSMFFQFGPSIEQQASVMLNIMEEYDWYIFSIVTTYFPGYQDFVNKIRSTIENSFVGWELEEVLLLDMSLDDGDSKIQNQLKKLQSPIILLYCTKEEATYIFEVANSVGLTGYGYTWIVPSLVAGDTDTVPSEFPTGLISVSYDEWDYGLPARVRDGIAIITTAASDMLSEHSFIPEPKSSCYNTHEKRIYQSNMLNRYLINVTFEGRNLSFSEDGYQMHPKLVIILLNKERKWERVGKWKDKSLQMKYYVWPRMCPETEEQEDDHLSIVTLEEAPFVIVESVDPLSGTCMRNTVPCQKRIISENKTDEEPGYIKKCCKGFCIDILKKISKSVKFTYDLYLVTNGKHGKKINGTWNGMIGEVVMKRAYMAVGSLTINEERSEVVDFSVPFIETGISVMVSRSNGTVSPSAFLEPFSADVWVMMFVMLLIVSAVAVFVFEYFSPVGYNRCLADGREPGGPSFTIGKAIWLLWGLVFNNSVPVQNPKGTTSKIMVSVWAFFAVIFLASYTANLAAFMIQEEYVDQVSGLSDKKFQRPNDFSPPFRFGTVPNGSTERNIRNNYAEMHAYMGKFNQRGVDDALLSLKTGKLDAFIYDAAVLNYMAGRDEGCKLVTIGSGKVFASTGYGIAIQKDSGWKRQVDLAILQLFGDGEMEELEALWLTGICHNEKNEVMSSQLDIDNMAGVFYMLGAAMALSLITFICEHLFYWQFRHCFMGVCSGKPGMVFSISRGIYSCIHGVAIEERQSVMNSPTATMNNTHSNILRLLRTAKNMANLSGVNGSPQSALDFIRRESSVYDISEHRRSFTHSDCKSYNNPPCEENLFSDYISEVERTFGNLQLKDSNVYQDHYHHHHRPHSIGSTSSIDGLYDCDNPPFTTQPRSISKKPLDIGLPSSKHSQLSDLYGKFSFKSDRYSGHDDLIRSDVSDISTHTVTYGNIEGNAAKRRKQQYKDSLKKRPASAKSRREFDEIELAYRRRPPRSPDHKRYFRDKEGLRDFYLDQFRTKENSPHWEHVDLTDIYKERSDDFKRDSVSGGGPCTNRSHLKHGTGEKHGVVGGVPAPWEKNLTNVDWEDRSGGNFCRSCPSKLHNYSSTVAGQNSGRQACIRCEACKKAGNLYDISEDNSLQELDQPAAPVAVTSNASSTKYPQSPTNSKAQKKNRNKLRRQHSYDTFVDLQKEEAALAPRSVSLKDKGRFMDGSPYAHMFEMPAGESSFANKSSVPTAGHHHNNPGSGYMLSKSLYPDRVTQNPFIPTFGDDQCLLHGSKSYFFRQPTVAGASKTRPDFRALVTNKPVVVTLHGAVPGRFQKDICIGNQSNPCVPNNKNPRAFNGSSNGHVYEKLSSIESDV

[4] = target: GluN1/GluN2A NMDA receptor (Rattus norvegicus, UniProt P35439+Q00959); assay type: cell-based; settings: for IC50: IC50 GluN1/GluN2A
Sequence of GluN1/GluN2A NMDA receptor (Q00959 23-1464, other chains not shown): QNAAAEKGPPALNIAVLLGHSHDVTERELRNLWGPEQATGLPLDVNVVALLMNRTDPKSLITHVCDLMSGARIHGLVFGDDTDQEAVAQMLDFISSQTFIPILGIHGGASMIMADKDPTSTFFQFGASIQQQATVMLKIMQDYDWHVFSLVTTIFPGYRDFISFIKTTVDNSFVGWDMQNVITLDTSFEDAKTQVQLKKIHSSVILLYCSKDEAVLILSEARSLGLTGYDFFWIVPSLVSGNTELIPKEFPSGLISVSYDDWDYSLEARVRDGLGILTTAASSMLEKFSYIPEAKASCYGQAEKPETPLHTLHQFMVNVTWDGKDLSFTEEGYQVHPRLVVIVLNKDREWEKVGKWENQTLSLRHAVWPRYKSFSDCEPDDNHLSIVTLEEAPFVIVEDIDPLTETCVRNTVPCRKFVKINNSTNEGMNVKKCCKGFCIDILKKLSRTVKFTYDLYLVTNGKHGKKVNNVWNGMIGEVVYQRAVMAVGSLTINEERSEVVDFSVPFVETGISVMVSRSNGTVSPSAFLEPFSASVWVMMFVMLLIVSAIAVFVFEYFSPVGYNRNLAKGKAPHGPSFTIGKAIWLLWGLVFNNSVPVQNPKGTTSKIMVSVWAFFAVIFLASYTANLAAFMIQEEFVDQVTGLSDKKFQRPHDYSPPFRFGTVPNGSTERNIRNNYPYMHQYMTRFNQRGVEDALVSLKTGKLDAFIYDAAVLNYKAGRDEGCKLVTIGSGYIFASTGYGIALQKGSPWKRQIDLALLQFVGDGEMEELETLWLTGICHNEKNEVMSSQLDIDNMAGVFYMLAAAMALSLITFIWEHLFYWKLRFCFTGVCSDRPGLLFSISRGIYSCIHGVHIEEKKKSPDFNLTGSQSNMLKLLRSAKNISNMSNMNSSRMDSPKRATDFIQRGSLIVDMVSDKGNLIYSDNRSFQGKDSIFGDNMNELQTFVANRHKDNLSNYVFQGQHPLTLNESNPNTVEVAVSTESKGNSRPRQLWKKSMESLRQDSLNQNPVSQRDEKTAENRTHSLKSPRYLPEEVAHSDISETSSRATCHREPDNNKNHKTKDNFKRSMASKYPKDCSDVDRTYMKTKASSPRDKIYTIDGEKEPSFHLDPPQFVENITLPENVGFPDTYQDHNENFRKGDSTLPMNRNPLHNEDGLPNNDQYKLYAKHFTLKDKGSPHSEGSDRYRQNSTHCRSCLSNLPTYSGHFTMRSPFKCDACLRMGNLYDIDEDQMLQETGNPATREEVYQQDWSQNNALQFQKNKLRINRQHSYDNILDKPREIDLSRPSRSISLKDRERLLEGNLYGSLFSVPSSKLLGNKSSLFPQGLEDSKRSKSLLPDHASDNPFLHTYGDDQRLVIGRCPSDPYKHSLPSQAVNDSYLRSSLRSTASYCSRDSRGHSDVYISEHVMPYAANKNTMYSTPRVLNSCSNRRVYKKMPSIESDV

AMPA receptors = test: Preliminary studies of antagonist activity at AMPA receptors
[5] = test system: GluN1/GluN2A-D NMDA receptors; assay type: cell-based
[6] = target: GluN1/GluN2D NMDA receptor (Rattus norvegicus, UniProt P35439+Q62645); assay type: cell-based; settings: for IC50: IC50 GluN1/GluN2D
[7] = target: GluN1/GluN2C NMDA receptor (Rattus norvegicus, UniProt P35439+Q00961); assay type: cell-based; settings: 10 μM L-glutamate plus 10 μM glycine, ± s.e.m., n ≥ 4
Sequence of GluN1/GluN2C NMDA receptor (Q00961 20-1237, other chains not shown): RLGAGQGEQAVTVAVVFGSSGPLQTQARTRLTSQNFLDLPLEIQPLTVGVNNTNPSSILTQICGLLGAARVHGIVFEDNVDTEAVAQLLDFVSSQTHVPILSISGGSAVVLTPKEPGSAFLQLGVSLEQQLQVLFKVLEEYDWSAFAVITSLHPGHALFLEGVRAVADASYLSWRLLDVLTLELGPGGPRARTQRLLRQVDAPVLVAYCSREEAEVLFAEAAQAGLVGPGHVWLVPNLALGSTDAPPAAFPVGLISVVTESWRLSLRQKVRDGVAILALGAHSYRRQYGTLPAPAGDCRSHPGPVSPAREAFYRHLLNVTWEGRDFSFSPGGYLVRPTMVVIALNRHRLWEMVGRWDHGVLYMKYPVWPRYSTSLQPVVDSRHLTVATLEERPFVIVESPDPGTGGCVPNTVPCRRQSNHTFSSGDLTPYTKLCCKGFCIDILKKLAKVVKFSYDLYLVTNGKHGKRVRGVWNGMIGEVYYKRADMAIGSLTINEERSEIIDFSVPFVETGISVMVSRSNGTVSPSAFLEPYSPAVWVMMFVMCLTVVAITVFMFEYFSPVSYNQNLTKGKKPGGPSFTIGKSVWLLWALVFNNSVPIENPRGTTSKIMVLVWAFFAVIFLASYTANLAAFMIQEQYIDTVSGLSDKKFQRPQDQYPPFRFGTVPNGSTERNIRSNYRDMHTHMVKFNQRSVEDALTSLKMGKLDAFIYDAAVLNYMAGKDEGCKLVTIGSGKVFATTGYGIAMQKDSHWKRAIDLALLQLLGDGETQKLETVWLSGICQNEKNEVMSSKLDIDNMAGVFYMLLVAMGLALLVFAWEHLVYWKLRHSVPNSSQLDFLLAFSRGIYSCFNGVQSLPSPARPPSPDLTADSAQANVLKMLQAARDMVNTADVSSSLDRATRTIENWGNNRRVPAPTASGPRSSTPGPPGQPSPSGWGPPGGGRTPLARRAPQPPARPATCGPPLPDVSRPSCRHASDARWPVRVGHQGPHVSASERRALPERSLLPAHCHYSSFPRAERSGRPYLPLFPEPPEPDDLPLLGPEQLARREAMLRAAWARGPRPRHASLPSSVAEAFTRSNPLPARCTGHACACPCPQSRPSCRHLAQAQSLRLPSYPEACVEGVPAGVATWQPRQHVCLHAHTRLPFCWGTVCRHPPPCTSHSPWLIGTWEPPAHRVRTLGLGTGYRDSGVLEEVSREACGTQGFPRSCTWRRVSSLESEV

[8] = 10 μM L-glutamate plus 10 μM glycine, ± s.e.m., n ≥ 4
[9] = 10 μM L-glutamate plus 10 μM glycine, −60 mV, ± s.e.m., n ≥ 4

O=C(O)c1cc2cc(Br)ccc2c(Br)c1O [UBP552, 1,6-Dibromo-2-hydroxy-3-naphthoic acid]
inhibition of receptor responses in the absence of the NTD ([1]; NTD deleted on GluN1 and GluN2A (Figure 4C)): still able to inhibit | effect of NTD deletion on inhibitory potency ([1]; compared with wild-type GluN1/GluN2A): increased the potency | inhibition of receptor responses in the absence of the NTD ([2]; NTD deleted on GluN1 and GluN2D (Figure 4C)): still able to inhibit | effect of NTD deletion on inhibitory potency ([2]; compared with wild-type GluN1/GluN2D): decreased the inhibitory potency | % Max. Inh. GluN1/GluN2B [3]: 108.3 ± 2.0% | % Max. Inh. GluN1/GluN2A [4, 8]: 105.6 ± 4.3% | IC50 [4, 9]: 6.29 ± 0.88 µM | IC50 ([4]; [Gly] 10 μM, [L-Glu] 2.0 μM): 5.05 ± 0.73 µM | IC50 ([4]; [Gly] 10 μM, [L-Glu] 300 μM): 8.58 ± 0.84 µM | IC50 ([4]; [Gly] 300 μM, [L-Glu] 10 μM): 10 ± 1.93 µM | IC50 ([4]; [Gly] 300 μM, [L-Glu] 300 μM): 15.5 ± 1.73 µM | antagonist activity at AMPA receptors (AMPA receptors): has antagonist activity | ability to fully inhibit receptor responses ([5]; all GluN1/GluN2A-D receptors): able to fully inhibit all receptor responses | % Max. Inh. GluN1/GluN2D [6, 8]: 103.6 ± 2.2% | effect on oocytes expressing GluN1/GluN2D receptors without agonists ([6]; 100 μM compound in the absence of L-glutamate and glycine): no detectable effect | IC50 [6, 9]: 3.35 ± 0.18 µM | IC50 ([6]; [Gly] 10 μM, [L-Glu] 0.3 μM): 6.26 ± 0.58 µM | IC50 ([6]; [Gly] 10 μM, [L-Glu] 300 μM): 3.35 ± 0.82 µM | IC50 ([6]; [Gly] 300 μM, [L-Glu] 10 μM): 3.73 ± 0.75 µM | IC50 ([6]; [Gly] 300 μM, [L-Glu] 300 μM): 4.85 ± 0.27 µM | decrease of IC50 values ([6]; increasing L-glutamate from 0.3 μM to 10 μM or to 300 μM, p < 0.05): 46%

O=C(O)c1cc2cc(-c3ccccc3)ccc2cc1O [UBP617, 2-hydroxy-6-phenyl-3-naphthoic acid]
% Max. Inh. GluN1/GluN2B [3]: 56.8 ± 5.2^c-ic-ic-ic-iI % | % Max. Inh. GluN1/GluN2A [4, 8]: 71.5 ± 6.4C^c-iHI %

O=C(O)c1cc2cc(-c3ccccc3)ccc2c(I)c1O [UBP619, 2-hydroxy-1-iodo-6-phenyl-3-naphthoic acid]
% Max. Inh. GluN1/GluN2C [7]: 77.3 ± 5.0^EHI % | % Max. Inh. GluN1/GluN2B [3]: 82.1 ± 3.1% | % Max. Inh. GluN1/GluN2A [4, 8]: 78.8 ± 2.5^CHI % | % Max. Inh. GluN1/GluN2D [6, 8]: 97.0 ± 2.2%

O=C(O)c1cc2cc(Br)ccc2c(I)c1O [UBP620, 6-bromo-2-hydroxy-1-iodo-3-naphthoic acid]
% Max. Inh. GluN1/GluN2C [7]: 96.1 ± 2.3% | % Max. Inh. GluN1/GluN2B [3]: 90% and 90.6 ± 10.7% | % Max. Inh. GluN1/GluN2A [4, 8]: 90% and 90.5 ± 7.4% | % Max. Inh. GluN1/GluN2D [6, 8]: 107.1 ± 4.3%

O=C(O)c1cc(Br)c2ccc(Br)cc2c1 [UBP628, 1,6-Dibromo-3-naphthoic acid]
% Max. Inh. GluN1/GluN2C [7]: 103.0 ± 7.1% | % Max. Inh. GluN1/GluN2B [3]: 84.4 ± 12.5% | % Max. Inh. GluN1/GluN2A [4, 8]: 104.3 ± 4.3% | fold lower potency than UBP552 at GluN1/GluN2A ([4]; from IC50 values, Table 1): 3 fold | % Max. Inh. GluN1/GluN2D [6, 8]: 112.4 ± 21.3% | fold lower potency than UBP552 for GluN1/GluN2D ([6]; from IC50 values, Table 1): 33 fold

Oc1ccc2cc(Br)ccc2c1Br [UBP644, 1,6-dibromo-2-naphthol]
Inhibitory activity at NMDA receptors (Figure 2) ([5]; compound at 100 μM, GluN1/GluN2A-D, 10 μM L-glutamate plus 10 μM glycine): virtually inactive; also recorded: eliminated activity
